The record followed here is ChEMBL document CHEMBL2331451, “Discovery of (1R,2R)-N-(4-(6-isopropylpyridin-2-yl)-3-(2-methyl-2H-indazol-5-yl)isothiazol-5-yl)-2-methylcyclopropanecarboxamide, a potent and orally efficacious mGlu5 receptor negative allosteric modulator” (Bioorg Med Chem Lett, 2013).

Active and inactive are the calls of the source. The rule behind the calls is not given here.

For data set [1], the target named is Metabotropic glutamate receptor 1 (Homo sapiens, UniProt Q13255). The data set can be described thus: Negative allosteric modulation of human recombinant mGlu1 receptor expressed in Syrian hamster AV12 cells assessed as receptor-mediated changes in intracellular calcium concentration by FLIPR assay. In kind it is functional, cell-based.
Metabotropic glutamate receptor 1, sequence (Q13255 whole entry): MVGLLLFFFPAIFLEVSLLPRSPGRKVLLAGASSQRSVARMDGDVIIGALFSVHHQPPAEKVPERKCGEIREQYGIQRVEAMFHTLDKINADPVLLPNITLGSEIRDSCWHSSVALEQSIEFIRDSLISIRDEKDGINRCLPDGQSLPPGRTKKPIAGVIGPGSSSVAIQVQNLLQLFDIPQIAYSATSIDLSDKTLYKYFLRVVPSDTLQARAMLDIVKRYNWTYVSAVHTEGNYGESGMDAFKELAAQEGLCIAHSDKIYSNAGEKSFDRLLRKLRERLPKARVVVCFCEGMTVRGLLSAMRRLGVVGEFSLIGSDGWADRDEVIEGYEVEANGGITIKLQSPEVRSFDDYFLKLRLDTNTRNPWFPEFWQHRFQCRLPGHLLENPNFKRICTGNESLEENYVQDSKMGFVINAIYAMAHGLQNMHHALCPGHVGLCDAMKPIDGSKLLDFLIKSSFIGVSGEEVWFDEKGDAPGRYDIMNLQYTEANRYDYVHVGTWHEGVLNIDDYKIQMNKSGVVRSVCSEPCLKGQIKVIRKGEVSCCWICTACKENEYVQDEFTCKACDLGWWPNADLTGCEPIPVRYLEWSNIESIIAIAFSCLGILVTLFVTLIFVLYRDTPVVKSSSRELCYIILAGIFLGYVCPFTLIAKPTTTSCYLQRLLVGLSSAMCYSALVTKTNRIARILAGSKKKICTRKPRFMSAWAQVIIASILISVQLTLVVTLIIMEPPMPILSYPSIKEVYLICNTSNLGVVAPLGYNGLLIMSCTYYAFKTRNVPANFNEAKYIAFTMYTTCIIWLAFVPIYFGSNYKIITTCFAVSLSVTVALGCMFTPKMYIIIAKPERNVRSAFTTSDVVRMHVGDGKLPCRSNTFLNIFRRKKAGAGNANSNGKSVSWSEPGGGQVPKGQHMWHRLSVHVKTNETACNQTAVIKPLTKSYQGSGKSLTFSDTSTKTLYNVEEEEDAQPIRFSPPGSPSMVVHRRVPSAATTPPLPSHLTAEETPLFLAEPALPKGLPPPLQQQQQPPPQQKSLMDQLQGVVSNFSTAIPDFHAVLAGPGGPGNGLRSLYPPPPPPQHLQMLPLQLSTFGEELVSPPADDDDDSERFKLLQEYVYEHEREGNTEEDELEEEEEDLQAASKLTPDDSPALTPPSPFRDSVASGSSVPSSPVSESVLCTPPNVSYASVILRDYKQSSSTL
For data set [2], the target named is Metabotropic glutamate receptor 5 (Homo sapiens, UniProt P41594). The data set can be described thus: Negative allosteric modulation of human recombinant mGlu5 receptor expressed in Syrian hamster AV12 cells assessed as receptor-mediated changes in intracellular calcium concentration by FLIPR assay. The data set is classed as functional, cell-based. (Calcium assays in cells follow changes in intracellular calcium, usually with a dye or a luminescent sensor.)
Metabotropic glutamate receptor 5 (Homo sapiens, UniProt P41594), sequence (P41594 whole entry): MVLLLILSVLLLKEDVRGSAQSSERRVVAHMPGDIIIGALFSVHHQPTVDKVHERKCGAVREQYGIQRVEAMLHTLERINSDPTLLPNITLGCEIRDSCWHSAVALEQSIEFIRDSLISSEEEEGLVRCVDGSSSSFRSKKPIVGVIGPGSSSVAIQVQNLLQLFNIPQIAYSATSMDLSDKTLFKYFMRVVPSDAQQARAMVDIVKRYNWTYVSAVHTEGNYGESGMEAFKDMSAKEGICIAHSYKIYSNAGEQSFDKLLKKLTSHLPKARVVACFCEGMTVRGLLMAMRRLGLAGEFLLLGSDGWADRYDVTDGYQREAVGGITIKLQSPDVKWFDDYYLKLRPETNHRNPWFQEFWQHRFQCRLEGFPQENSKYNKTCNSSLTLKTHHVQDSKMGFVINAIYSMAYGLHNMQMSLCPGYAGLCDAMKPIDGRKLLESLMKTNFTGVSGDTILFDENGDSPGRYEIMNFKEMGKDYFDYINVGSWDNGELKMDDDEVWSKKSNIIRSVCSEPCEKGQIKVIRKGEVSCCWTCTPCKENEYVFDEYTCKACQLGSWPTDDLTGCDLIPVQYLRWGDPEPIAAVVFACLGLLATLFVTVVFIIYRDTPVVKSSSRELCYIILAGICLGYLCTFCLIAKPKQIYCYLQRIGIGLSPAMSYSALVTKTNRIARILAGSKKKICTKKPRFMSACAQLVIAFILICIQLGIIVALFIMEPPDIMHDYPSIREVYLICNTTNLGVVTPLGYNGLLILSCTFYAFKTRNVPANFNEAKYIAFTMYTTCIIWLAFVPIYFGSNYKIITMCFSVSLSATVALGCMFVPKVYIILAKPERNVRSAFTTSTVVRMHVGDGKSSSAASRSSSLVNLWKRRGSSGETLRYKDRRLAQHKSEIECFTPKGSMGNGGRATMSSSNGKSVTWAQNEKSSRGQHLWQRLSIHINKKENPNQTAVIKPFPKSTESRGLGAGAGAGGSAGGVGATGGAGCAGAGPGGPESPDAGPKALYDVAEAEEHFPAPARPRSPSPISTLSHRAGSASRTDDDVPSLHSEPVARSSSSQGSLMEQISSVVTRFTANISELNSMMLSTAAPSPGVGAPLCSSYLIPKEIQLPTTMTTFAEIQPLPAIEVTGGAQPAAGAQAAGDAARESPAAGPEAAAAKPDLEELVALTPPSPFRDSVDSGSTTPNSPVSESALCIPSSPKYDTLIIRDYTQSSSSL

The species entered for a further data set is Homo sapiens. The data set can be described thus: Selectivity ratio of IC50 for human recombinant mGlu1 receptor to IC50 for human recombinant mGlu5 receptor.
A short description of data set [3]: Drug uptake in Harlan Sprague-Dawley rat brain at 10 mg/kg, po after 24 hrs. In kind it is ADME, organism-based. The arrangement: dose 10 mg/kg, route oral. The following applies: read-out: Drug uptake.
Data set [4] can be described thus: Tmax in Harlan Sprague-Dawley rat at 1.5 mg/kg, po. In kind it is ADME, organism-based. The note with it: in vivo. More on the design: dose 1.5 mg/kg, route oral.
The subject of data set [5] is Rattus norvegicus. Description: Ex vivo receptor occupancy of mGlu5 receptor in Harlan Sprague-Dawley rat brain at 10 mg/kg, po after 6 hrs. In kind it is functional.
Data set [6] can be described thus: Drug uptake in Harlan Sprague-Dawley rat brain at 10 mg/kg, po after 4 hrs. In kind it is ADME, organism-based. The following applies: read-out: Drug uptake. The arrangement: dose 10 mg/kg, route oral.
The species entered for data set [7] is Rattus norvegicus. The data set can be described thus: Neurotoxicity in Harlan Sprague-Dawley rat assessed as minimal motor impairment up to 4 hrs by rotorod test. The data set is classed as toxicity, organism-based. The following applies: in vivo. A general note: In the rotarod test animals must keep their balance on a rotating rod.
In data set [8] the target is T1, 5-hydroxytryptamine receptor 2B (Homo sapiens, UniProt P41595). The data set can be described thus: Binding affinity to 5HT2B receptor (unknown origin).
T1 sequence (P41595 whole entry): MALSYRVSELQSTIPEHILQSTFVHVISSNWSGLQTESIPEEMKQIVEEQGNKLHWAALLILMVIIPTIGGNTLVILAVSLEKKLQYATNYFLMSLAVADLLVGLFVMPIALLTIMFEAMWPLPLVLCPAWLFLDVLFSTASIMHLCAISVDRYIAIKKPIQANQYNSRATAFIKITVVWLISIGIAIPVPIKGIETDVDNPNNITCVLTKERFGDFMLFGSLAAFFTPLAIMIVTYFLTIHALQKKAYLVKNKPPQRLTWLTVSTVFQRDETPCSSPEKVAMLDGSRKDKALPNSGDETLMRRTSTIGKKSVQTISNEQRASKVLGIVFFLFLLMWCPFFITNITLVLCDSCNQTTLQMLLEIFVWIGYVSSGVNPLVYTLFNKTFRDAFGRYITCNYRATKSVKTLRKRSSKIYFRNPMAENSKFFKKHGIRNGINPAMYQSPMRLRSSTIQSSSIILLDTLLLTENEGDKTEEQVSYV
Data set [9] deals with Rattus norvegicus. Description: Ex vivo receptor occupancy of mGlu5 receptor in Harlan Sprague-Dawley rat brain at 10 mg/kg, po after 24 hrs. In kind it is functional.
Data set [10] in a line: Elimination half life in Harlan Sprague-Dawley rat at 1 mg/kg, iv. In kind it is ADME, organism-based. The arrangement: dose 1 mg/kg, route intravenous. The note with it: in vivo, read-out: beta t1/2 (converted).
In data set [11] the test system is Rattus norvegicus. Description: Ex vivo receptor occupancy of mGlu5 receptor in Harlan Sprague-Dawley rat brain at 10 mg/kg, po after 4 hrs. In kind it is functional.
The nature of data set [12]: AUC (0 to 24 hrs) in Harlan Sprague-Dawley rat at 1.5 mg/kg, po. The data set is classed as ADME, organism-based. The arrangement: time < 24 hr, dose 1.5 mg/kg, route oral. The following applies: plasma.
Data set [13] relates to Rattus norvegicus. The data set can be described thus: Ex vivo receptor occupancy of mGlu5 receptor in po dosed Harlan Sprague-Dawley rat brain. In kind it is functional.
Data set [14] is described as follows: Clearance in Harlan Sprague-Dawley rat at 1.5 mg/kg, po and 1 mg/kg, iv. The data set is classed as ADME, organism-based. The note with it: in vivo.
Data set [15] relates to Rattus norvegicus. Description: Ex vivo receptor occupancy of mGlu5 receptor in Harlan Sprague-Dawley rat brain at 10 mg/kg, po after 1 hr. The data set is classed as functional.
Data set [16] has as its target Metabotropic glutamate receptor 5 (Rattus norvegicus, UniProt P31424). The data set can be described thus: Negative allosteric modulation of rat mGlu5 receptor.
In data set [17] the test system is Rattus norvegicus. Description: Ex vivo receptor occupancy of mGlu5 receptor in Harlan Sprague-Dawley rat brain at 10 mg/kg, po after 0.5 hrs. In kind it is functional.
Data set [18] addresses T1, 5-hydroxytryptamine receptor 2B. The following applies: 1 uM.
Description: Inhibition of 5HT2B receptor (unknown origin) at 1 uM
Data set [19] is described as follows: Bioavailability in Harlan Sprague-Dawley rat at 1.5 mg/kg, po and 1 mg/kg, iv. The data set is classed as ADME, organism-based. The following applies: in vivo.
Data set [20] can be described thus: Drug uptake in Harlan Sprague-Dawley rat brain at 10 mg/kg, po after 1 hr. More on the design: dose 10 mg/kg, route oral. The data set is classed as ADME, organism-based. The note with it: read-out: Drug uptake.
Data set [21] relates to Rattus norvegicus. The data set can be described thus: Ex vivo receptor occupancy of mGlu5 receptor in Harlan Sprague-Dawley rat brain at 10 mg/kg, po after 2 hrs. In kind it is functional.
Data set [22] can be described thus: Drug uptake in Harlan Sprague-Dawley rat brain at 10 mg/kg, po after 0.5 hrs. In kind it is ADME, organism-based. The arrangement: dose 10 mg/kg, route oral. The following applies: read-out: Drug uptake.
Data set [23] deals with Rattus norvegicus. The data set can be described thus: Analgesic activity in po dosed fasted Harlan Sprague-Dawley rat assessed as inhibition of late phase of formalin- induced paw-licking pain behavior. The data set is classed as functional.
The nature of data set [24]: Drug uptake in Harlan Sprague-Dawley rat brain at 10 mg/kg, po after 2 hrs. The data set is classed as ADME, organism-based. More on the design: dose 10 mg/kg, route oral. The note with it: read-out: Drug uptake.
A short description of data set [25]: Volume of distribution in Harlan Sprague-Dawley rat at 1.5 mg/kg, po and 1 mg/kg, iv. In kind it is ADME, organism-based. The following applies: in vivo.
Data set [26] in a line: Cmax in Harlan Sprague-Dawley rat at 1.5 mg/kg, po. The following applies: in vivo. In kind it is ADME, organism-based. More on the design: dose 1.5 mg/kg, route oral.
Data set [27] can be described thus: Elimination half life in Harlan Sprague-Dawley rat at 1.5 mg/kg, po. In kind it is ADME, organism-based. More on the design: dose 1.5 mg/kg, route oral. The note with it: in vivo, read-out: beta t1/2 (converted).
For data set [28], the system named is Rattus norvegicus. Description: Ex vivo receptor occupancy of mGlu1 receptor in Harlan Sprague-Dawley rat brain up to 10 mg/kg, po. The data set is classed as functional, organism-based. The arrangement: dose 10 mg/kg.
Data set [29] can be described thus: Drug uptake in Harlan Sprague-Dawley rat brain at 10 mg/kg, po after 6 hrs. The data set is classed as ADME, organism-based. The arrangement: dose 10 mg/kg, route oral. The note with it: read-out: Drug uptake.

Metabotropic glutamate receptor 5 (Rattus norvegicus, UniProt P31424), sequence (P31424 whole entry): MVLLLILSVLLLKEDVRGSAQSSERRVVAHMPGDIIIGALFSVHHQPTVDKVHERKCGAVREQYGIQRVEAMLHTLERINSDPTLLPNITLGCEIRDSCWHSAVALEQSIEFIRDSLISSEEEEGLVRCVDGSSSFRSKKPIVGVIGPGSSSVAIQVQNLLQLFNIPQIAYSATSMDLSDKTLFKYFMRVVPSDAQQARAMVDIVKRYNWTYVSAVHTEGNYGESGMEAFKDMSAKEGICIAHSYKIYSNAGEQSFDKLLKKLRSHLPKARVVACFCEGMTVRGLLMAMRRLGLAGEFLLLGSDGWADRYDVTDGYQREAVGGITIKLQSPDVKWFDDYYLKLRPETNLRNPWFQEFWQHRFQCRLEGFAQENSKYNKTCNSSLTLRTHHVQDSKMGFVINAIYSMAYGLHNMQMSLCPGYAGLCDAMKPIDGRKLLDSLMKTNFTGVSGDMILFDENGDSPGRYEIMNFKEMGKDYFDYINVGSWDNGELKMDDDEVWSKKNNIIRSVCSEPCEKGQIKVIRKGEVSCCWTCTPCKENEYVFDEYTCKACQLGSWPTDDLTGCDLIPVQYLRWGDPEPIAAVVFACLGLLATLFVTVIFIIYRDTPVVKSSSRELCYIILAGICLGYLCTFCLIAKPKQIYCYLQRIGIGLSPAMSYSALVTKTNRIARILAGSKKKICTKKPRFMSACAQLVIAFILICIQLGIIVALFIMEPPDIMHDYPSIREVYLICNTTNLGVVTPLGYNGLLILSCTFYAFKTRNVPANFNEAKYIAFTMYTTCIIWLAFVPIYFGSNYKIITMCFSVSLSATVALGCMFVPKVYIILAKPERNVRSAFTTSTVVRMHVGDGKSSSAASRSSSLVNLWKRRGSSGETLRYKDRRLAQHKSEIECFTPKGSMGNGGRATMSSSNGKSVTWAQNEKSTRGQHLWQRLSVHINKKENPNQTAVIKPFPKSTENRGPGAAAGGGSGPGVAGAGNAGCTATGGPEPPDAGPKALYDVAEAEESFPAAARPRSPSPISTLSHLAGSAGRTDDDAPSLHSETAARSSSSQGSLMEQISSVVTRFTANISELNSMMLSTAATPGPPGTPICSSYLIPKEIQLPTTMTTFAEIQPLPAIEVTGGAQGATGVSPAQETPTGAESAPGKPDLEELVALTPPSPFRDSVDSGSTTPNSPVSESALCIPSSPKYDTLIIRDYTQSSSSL

Turning to `CC[C@@H]1C[C@H]1C(=O)Nc1snc(-c2ccc3nn(C)cc3c2)c1-c1cccc(N(C)C)n1`, the IC50 in [1] was over 12500 nM; in [2] it was 35 nM. Moreover, in the data set filed under Homo sapiens, the Ratio IC50 was over 357.
On the same counts, the results for `C[C@@H]1C[C@H]1C(=O)Nc1snc(-c2ccc3nn(C)cc3c2)c1-c1cccc(N(C)C)n1` are 9540 nM, 20 nM and 477.
On to `C[C@@H]1C[C@H]1C(=O)Nc1snc(-c2ccc3nn(C)cc3c2)c1-c1cccc(C(F)F)n1`, for which the IC50 was found to be 1020 nM in data set [1] and 81 nM in data set [2]. Further, the Ratio IC50 in the data set listed under Homo sapiens was found to be 13.
The like results for `CNc1cccc(-c2c(-c3ccc4nn(C)cc4c3)nsc2NC(=O)[C@@H]2C[C@H]2C)n1` were, in that order, 1590 nM, 62 nM and 26.
On the same counts, the results for `C[C@@H]1C[C@H]1C(=O)Nc1snc(-c2ccc3nn(C)cc3c2)c1-c1cccc(CF)n1` are 1300 nM, 50 nM and 26.
The like results for `C[C@@H]1C[C@H]1C(=O)Nc1snc(-c2ccc3n[nH]cc3c2)c1-c1cccc(N(C)C)n1` were, in that order, over 12500 nM, 47 nM and over 266.
Turning to `CCc1cccc(-c2c(-c3ccc4n[nH]cc4c3)nsc2NC(=O)[C@@H]2C[C@H]2C)n1`, the values for the IC50 in [1] and in [2] were 3110 nM and 36 nM, respectively. Besides, in the data set listed under Homo sapiens, the Ratio IC50 turned out to be 86.
Consider `COc1ccc(-c2nsc(NC(=O)[C@@H]3C[C@H]3C)c2C)cc1`, for which the Ratio IC50 in the data set filed under Homo sapiens is over 20.
For the compound `C[C@@H]1C[C@H]1C(=O)Nc1snc(-c2ccc3nn(C)cc3c2)c1-c1ccccn1`, the figures for the IC50 in data set [1] and in data set [2] were 238 nM and 29 nM, respectively. Besides, the Ratio IC50 in the data set filed under Homo sapiens amounted to 8.
The like results for `CCc1cccc(-c2c(-c3ccc4nn(C)cc4c3)nsc2NC(=O)[C@@H]2C[C@H]2C)n1` were, in that order, 279 nM, 10 nM and 28.
On the same counts, the results for `COc1cccc(-c2c(-c3ccc4nn(C)cc4c3)nsc2NC(=O)[C@@H]2C[C@H]2C)n1` are 190 nM, 36 nM and 5.
The like results for `CC(C)c1cccc(-c2c(-c3ccc4nn(C)cc4c3)nsc2NC(=O)C2CC2)n1` were, in that order, 397 nM, 39 nM and 10.
Take `CC(C)c1cccc(-c2c(-c3ccc4nn(C)cc4c3)nsc2NC(=O)[C@@H]2C[C@H]2C)n1.Cl`: the concentration at 24 h in data set [3] was found to be 2340 nM. Moreover, the Tmax in data set [4] was found to be 2 h. In addition, the Activity in the data set on Rattus norvegicus [5] was 62.5%; in the data set filed under Rattus norvegicus [7] it was “Non-toxic”; in the data set with Rattus norvegicus [9], 58.9%; in the data set with Rattus norvegicus [11] it was 67.7%; with Rattus norvegicus [13], “Dose-dependent effect”; in the data set with Rattus norvegicus [15] it was 57.8%. Further, the figures for the Activity in the data set on Rattus norvegicus [17] and in the data set with Rattus norvegicus [21] were 37.8% and 74.3%, respectively. In addition, the concentration at 4 h in data set [6] worked out at 2590 nM. The IC50 in [1] was 644 nM; in data set [16], 167 nM; in data set [2], 19 nM. In [8], this compound came in with a Ki of 3160 nM. Moreover, the figures for the half-life in [10] and in data set [27] were 4.9 h and 4.6 h, respectively. The compound further had an AUC(0-t) at 24 h in data set [12] of 1570 ng·h/mL. For the same compound, the ED50 in the data set on Rattus norvegicus [13] was 2.1 mg/kg; in the data set with Rattus norvegicus [23], 25.5 mg/kg. The same compound returned a clearance in data set [14] of 8.4 mL/min/kg. Further, the inhibition in data set [18] is 56%; in the data set with Rattus norvegicus [23], “Dose-dependent effect”. Further, in data set [19], the bioavailability worked out at 56.5%. In data set [20], the concentration at 1 h was found to be 2230 nM. Besides, the concentration at 0.5 h in data set [22] amounted to 1240 nM. Besides, in the data set listed under Homo sapiens, the Ratio IC50 came out at 34. For the same compound, the concentration at 2 h in data set [24] was 2850 nM. This compound had a Vd in data set [25] of 2.7 L/kg. Besides, in data set [26], the peak level (Cmax) was 255 ng/mL. The result in the data set on Rattus norvegicus [28] was inactive. For the same compound, the concentration at 6 h in data set [29] turned out to be 2980 nM.
As for `C[C@@H]1C[C@H]1C(=O)Nc1snc(-c2ccc3nn(C)cc3c2)c1-c1cccc(C2CCCC2)n1`, the figures for the IC50 in data set [1] and in data set [2] were 891 nM and 27 nM, respectively. Besides, the Ratio IC50 in the data set filed under Homo sapiens was found to be 33.
The like results for `CC(C)c1cccc(-c2c(-c3ccc4n[nH]cc4c3)nsc2NC(=O)[C@@H]2C[C@H]2C)n1` were, in that order, 4570 nM, 45 nM and 102.
On the same counts, the results for `C[C@@H]1C[C@H]1C(=O)Nc1snc(-c2ccc3nn(C)cc3c2)c1-c1cccc(C2CCC2)n1` are 687 nM, 54 nM and 13.
Consider `C[C@@H]1C[C@H]1C(=O)Nc1snc(-c2ccc3nn(C)cc3c2)c1-c1cccc(C2CC2)n1`, for which the IC50 in data set [1] worked out at 735 nM; in data set [2], 30 nM. For the same compound, in the data set listed under Homo sapiens, the Ratio IC50 turned out to be 25.
For `Cc1cccc(-c2c(-c3ccc4nn(C)cc4c3)nsc2NC(=O)[C@@H]2C[C@H]2C)n1`, the IC50 in data set [1] was determined as 2210 nM; in [2] it was 45 nM. The Ratio IC50 in the data set listed under Homo sapiens was found to be 49.
On the same counts, the results for `CCCc1cccc(-c2c(-c3ccc4nn(C)cc4c3)nsc2NC(=O)[C@@H]2C[C@H]2C)n1` are 409 nM, 20 nM and 20.

Usually IC50 stands for the concentration at which inhibition is half-maximal. A word on the Tmax: it is the time from dosing to the highest level. Usually Ki stands for the equilibrium dissociation constant of an inhibitor or competing ligand from its target. High values mean weaker binding, low ones tighter binding. One may read the AUC(0-t) as the area under the concentration-time curve up to a stated or last time point. Lower therefore signals low exposure. One may read the ED50 as the dose that gives a 50% effect, or the effect in half of the subjects. Usually inhibition stands for the relative decrease from the control value, in per cent. As a reminder, the bioavailability is dose-corrected exposure relative to a reference, in per cent. In general, Cmax refers to the peak of the concentration-time curve.
